Experimental findings from patent US12447165B2, “Intratumoral vein-formation promoting agent” (OSAKA UNIVERSITY, priority 2016, dated 2025) are described below.

For assay [1], the system named is LLC cells. Nature of the assay: Tumor volume, combination of soybean PC and 5-FU, LLC cancer-bearing mice (Example 12). It is filed as in vivo, mouse. To be noted: soybean PC 3 mg/kg i.v. daily day 7 to 20, 5-FU 20 mg/kg i.p. day 7 and 14, volume to day 21. As for the experimental part: LLC cells (1×10^6 cells in 100 μL of PBS per animal) were subcutaneously injected into C57BL/6NCrSlc mice aged 8 weeks (females, SLC, Inc.) to generate cancer-bearing mice. The mice were assigned to 4 groups: a soybean PC group, a 5-FU group, a soybean PC plus 5-FU group, and a control group (vehicle administration group) (3 animals per group). For the soybean PC group and the soybean PC plus 5-FU group, in the same manner as in Example 1, 3 mg/kg (100 μL) of the soybean PC was administered once daily via the mouse tail vein for […] from day 7 to day 20 post-cancer cell inoculation. For the 5-FU group and the soybean PC plus 5-FU group, 5-FU (Kyowa Hakko Kirin Co., Ltd.) was intraperitoneally administered at a dose of 20 mg/kg on day 7 and day 14 post-cancer cell inoculation. Tumor volume was measured on day 7, day 14 and day 21 post-cancer cell inoculation. The tumor volume was calculated by the following formula: length×width×height×0.5.

In assay [2] the test system is LLC cells. The assay is described as follows: Various phosphatidylcholines: intratumoral lymphocyte infiltration, LLC cancer-bearing mice (Example 9). It is filed as in vivo, mouse. To be noted: LLC tumor; PC 3 mg/kg i.v. once daily day 7 to 13; harvested day 14; CD4- and CD8-positive cells. An excerpt: The PCs of Group A were dioctanoyl phosphatidylcholine (Avanti POLAR LIPIDS), dimyristoyl phosphatidylcholine (Nippon Fine Chemical), distearoyl phosphatidylcholine (Nippon Fine Chemical), dioleoyl phosphatidylcholine (Nippon Fine Chemical) and dilinoleoyl phosphatidylcholine (Avanti POLAR LIPIDS). The PCs of Group B were (1-palmitoyl-2-myristoyl) phosphatidylcholine (Avanti POLAR LIPIDS) and (1-palmitoyl-2-oleoyl) phosphatidylcholine (Avanti POLAR LIPIDS).
In the same manner as in Example 1, LLC cells ([…] cells in 100 μL of PBS per animal) were subcutaneously injected into C57BL/6NCrSlc mice aged 8 weeks (females, SLC, Inc.) to generate cancer-bearing mice. For 7 consecutive days from day 7 to day 13 post-cancer cell inoculation, the PCs indicated above were administered at a dose of 3 mg/kg (100 μL) once daily via the mouse tail vein. The vehicle was administered to the mice of the control group. On the day following the final administration (day 14 post-inoculation), the tumors were harvested from the mice. In the same manner as in Example 1, tumor tissue sections were prepared, tumor vasculature was observed, and intratumoral lymphocyte infiltration was examined.

The subject of assay [3] is human umbilical vein endothelial cells (HUVECs). The assay is described as follows: Tubulogenesis of cultured HUVECs on Matrigel with VEGF (Examples 13 and 14). It is filed as cell-based. To be noted: HUVEC on Matrigel, Example 14. On the procedure:
Each well of a 48-well plate was coated with 200 μL of Matrigel (BD biosciences), and human umbilical vein endothelial cells (HUVECs; Kurabo Industries Ltd.) were seeded at 5×10^4 cells/200 μL/well and cultured. For the culture, HuMedia-EB2 medium (Kurabo Industries, Ltd.) supplemented with 1% FCS was used. VEGF (recombinant human VEGF165, Peprotech) was added at a final concentration of 10 ng/mL to the culture medium to induce tubulogenesis of the vascular endothelial cells. Soybean PC was also added at 10 μM concomitantly with VEGF. At 12 to 16 hours after the start of the culture, the cells were photographed under a microscope. In addition, Hoechst (Boehringer Ingelheim) was added to stain cell nuclei, and newly formed blood vessels were observed. The wells not containing the soybean PC were used as a control.
The same experiment as in Example 12 was performed using soybean PC and other 8 types of PCs. The PCs were classified as Group A or B as with Example 8. The PCs used were as follows (see Table 2).

In a further assay the test system is intratumoral vessels. The assay is described as follows: Phosphatidylcholine administration to lysophosphatidic acid receptor 4-deficient mice. It is filed as in vivo, mouse. An excerpt: Lysophosphatidic acid is enzymatically synthesized from lysophosphatidylcholine, which is produced by enzymatic decomposition of phosphatidylcholine. Considering this, there was a possibility that the newly discovered effects of phosphatidylcholine might be underlain by the mechanism that the administered phosphatidylcholine undergoes in vivo decomposition into lysophosphatidic acid, which activates a lysophosphatidic acid receptor and thereby produces the effects. However, the structural improvement of intratumoral vessels and the promotion of immune cell infiltration after phosphatidylcholine administration were not observed after lysophosphatidyicholine administration (see Reference Example 1). […] Therefore, the effects of phosphatidylcholine were proven not to be mediated by a lysophosphatidic acid receptor.

For `O=c1[nH]cc(F)c(=O)[nH]1` [5-FU], in the assay with LLC cells [1], the “tumor volume (tumor growth) as compared with the control group” value is given as “tumor growth inhibition”.

On to `CCCCCCCCCCCCCCCC(=O)OC[C@H](COP(=O)([O-])OCC[N+](C)(C)C)OC(=O)CCCCCCCCCCCCC` [(1-palmitoyl-2-myristoyl) phosphatidylcholine], for which, in the assay on LLC cells [2], the “Lymphocyte Infiltration” value is “yes”. For the same molecule, in assay [3], the Vein-like morphological change entry is given as “yes”.

Take `CCCCCCCC/C=C\CCCCCCCC(=O)O[C@H](COC(=O)CCCCCCCCCCCCCCC)COP(=O)([O-])OCC[N+](C)(C)C` [(1-palmitoyl-2-oleoyl) phosphatidylcholine]: in the assay on LLC cells [2], the “Lymphocyte Infiltration” value is on record as “yes”. Besides, in assay [3], the Vein-like morphological change result was “yes”.

Regarding `CC/C=C\C/C=C\C/C=C\C/C=C\C/C=C\C/C=C\CCC(=O)OC[C@H](COP(=O)([O-])OCC[N+](C)(C)C)OC(=O)CC/C=C\C/C=C\C/C=C\C/C=C\C/C=C\C/C=C\CC` [Didocosahexaenoyl phosphatidylcholine, didocosahexaenoyl phosphatidylcholine], the Vein-like morphological change result in assay [3] is given as “yes”.

Regarding `CCCCC/C=C\C/C=C\CCCCCCCC(=O)OC[C@H](COP(=O)([O-])OCC[N+](C)(C)C)OC(=O)CCCCCCC/C=C\C/C=C\CCCCC` [Dilinoleoyl phosphatidylcholine, dilinoleoyl phosphatidylcholine], the “Lymphocyte Infiltration” value with LLC cells [2] was “yes”. For the same molecule, the Vein-like morphological change result in assay [3] is on record as “yes”.

As for `CCCCCCCCCCCCCC(=O)OC[C@H](COP(=O)([O-])OCC[N+](C)(C)C)OC(=O)CCCCCCCCCCCCC` [Dimyristoyl phosphatidylcholine, dimyristoyl phosphatidylcholine], the “Lymphocyte Infiltration” value in the assay on LLC cells [2] is “yes”. Besides, the Vein-like morphological change entry in assay [3] was “yes”.

With `CCCCCCCC(=O)OCC(COP(=O)([O-])OCC[N+](C)(C)C)OC(=O)CCCCCCC` (stereo not drawn) [Dioctanoyl phosphatidylcholine, dioctanoyl phosphatidylcholine], in the assay with LLC cells [2], the “Lymphocyte Infiltration” value is on record as “yes”. For the same molecule, the Vein-like morphological change entry in assay [3] is “yes”.

Take `CCCCCCCC/C=C\CCCCCCCC(=O)OC[C@H](COP(=O)([O-])OCC[N+](C)(C)C)OC(=O)CCCCCCC/C=C\CCCCCCCC` [Dioleoyl phosphatidylcholine, dioleoyl phosphatidylcholine]: the “Lymphocyte Infiltration” value in the assay on LLC cells [2] was “yes”. In addition, the Vein-like morphological change entry in assay [3] is listed as “yes”.

As for `CCCCCCCCCCCCCCCCCC(=O)OC[C@H](COP(=O)([O-])OCC[N+](C)(C)C)OC(=O)CCCCCCCCCCCCCCCCC` [Distearoyl phosphatidylcholine, distearoyl phosphatidylcholine], the “Lymphocyte Infiltration” value in the assay with LLC cells [2] was “yes”. For the same molecule, the Vein-like morphological change result in assay [3] is listed as “yes”.

Take phosphatidylcholine: in the assay on intratumoral vessels, the immune cell infiltration entry was “promoted immune cell infiltration” and the “structure of intratumoral vessels” value was “improved the structure of intratumoral vessels”.
